The values that follow come from US20080206311A1, “Sucrase Activity Inhibitor, Glucoamylase Activity Inhibitor and Food and Feed Containing the Same” (MITSUI SUGAR CO., LTD., priority 2005, published 2008).

For experiment [1], the target named is T1, lactase (Rattus norvegicus, UniProt Q02401).
T1 construct: tissue Sigma Corporation; host or cells: rat small intestine (acetone powder), buffer extract, unpurified
T1 sequence (Q02401 868-1928): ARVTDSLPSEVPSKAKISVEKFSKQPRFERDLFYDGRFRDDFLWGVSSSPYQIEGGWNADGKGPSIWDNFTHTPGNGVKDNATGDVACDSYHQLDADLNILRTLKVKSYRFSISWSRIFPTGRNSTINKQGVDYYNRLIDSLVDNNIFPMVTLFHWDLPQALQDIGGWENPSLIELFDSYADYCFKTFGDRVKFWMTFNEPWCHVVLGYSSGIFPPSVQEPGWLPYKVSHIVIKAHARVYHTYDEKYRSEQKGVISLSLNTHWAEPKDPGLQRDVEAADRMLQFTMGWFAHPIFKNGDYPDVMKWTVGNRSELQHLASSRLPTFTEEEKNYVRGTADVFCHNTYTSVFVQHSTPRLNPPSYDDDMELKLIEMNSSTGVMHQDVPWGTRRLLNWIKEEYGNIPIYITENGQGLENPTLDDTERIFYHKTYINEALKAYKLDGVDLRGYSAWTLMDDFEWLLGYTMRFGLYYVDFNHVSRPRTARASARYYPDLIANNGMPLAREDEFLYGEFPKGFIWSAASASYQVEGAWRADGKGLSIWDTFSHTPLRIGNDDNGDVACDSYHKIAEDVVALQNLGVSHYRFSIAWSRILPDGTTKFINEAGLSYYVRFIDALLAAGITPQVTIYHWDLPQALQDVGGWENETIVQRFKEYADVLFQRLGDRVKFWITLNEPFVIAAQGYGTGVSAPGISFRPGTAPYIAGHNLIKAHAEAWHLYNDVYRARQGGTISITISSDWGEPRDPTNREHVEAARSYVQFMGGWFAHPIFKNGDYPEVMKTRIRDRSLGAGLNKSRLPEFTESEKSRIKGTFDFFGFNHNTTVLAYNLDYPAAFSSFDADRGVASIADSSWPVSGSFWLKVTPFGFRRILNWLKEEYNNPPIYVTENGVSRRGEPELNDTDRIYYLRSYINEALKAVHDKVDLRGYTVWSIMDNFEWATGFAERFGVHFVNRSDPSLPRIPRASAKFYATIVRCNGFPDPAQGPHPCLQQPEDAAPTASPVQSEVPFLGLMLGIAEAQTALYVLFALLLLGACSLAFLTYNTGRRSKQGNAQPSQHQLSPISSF
Put plainly: Lactase activity inhibition with rat small-intestinal enzyme liquid, substrate lactose. Particulars: 5% lactose + 5% test sample. Format: biochemical. On the procedure: (§1) Two grams of rat small-intestinal acetone powder (ex Sigma Corporation) were dissolved in 20 ml of 0.1 M phosphate buffer (pH 6.8), left standing one day at 5° C., and subsequently subjected to centrifugal separation (8000 rpm×15 min.). The supernatant was filtered through a 0.8 μm membrane filter to obtain a small-intestinal enzyme liquid. This liquid contained a mixture of enzymes present in small intestine, such as sucrose, glucoamylase, maltase, and isomaltase.
(§2) Each 0.25 ml of the small-intestinal enzyme liquid was added to each 5 ml of Solutions 1 through 5 and placed in a water bath at 37° C. to allow them to react for 60 min. while shaken at 60 strokes/min. After the reaction, they were heated in a boiling water bath for 3 min. for inactivation of the enzymes.
(§3) The glucose concentration in each solution after the reaction was measured using the F-kit Glucose (ex Roche). A liberated glucose concentration (g/l) was calculated by subtracting the blank value (0.1 M phosphate buffer alone) and the concentration of glucose originally contained in the test sample from each glucose concentration measured.
(§4) Next, each of the liberated glucose concentration was input in the following equation to obtain decomposition inhibition ratio for maltase and sucrose. In the present tests, the substrates and the inhibitors were decomposed by enzymes present in the small-intestinal enzyme liquid. However, the enzymes decomposing the substrates are different from the enzymes decomposing the inhibitors. The decomposition inhibition ratio was determined as a measure for the inhibitory effect. When the inhibitor was added, the glucose concentration was lower than that seen when the substrate alone was reacted. A higher decomposition inhibition ratio means a stronger inhibitory effect.
(§5) Decomposition inhibition ratio,%={(A+B)−(AB)}+(A+B)×100 [Equation 1]
(§6) wherein (A+B) indicates a sum of a liberated glucose concentration in the control solution containing the test sample alone after the reaction (A) and a liberated glucose concentration in the control solution containing the substrate alone after the reaction (B); and (AB) indicates a liberated glucose concentration in the test solution containing the test sample (A) and the substrate (B), after the reaction.
(§7) The procedures in Example 1 were repeated with the exception that palatinit, palatinose or isomaltose was used as a test sample and lactose was used as a substrate. The test samples and the substrate were dissolved in 0.1 M phosphate buffer (pH 6.8) to attain the concentration shown in Table 5 to thereby prepare three test solutions. Besides, each of the test samples or the substrate was dissolved in 0.1 M phosphate buffer (pH 6.8) to attain the concentration shown in Table 5 to thereby prepare control solutions. Each 5 ml of the aforementioned test solutions and the control solutions was subjected to the enzymatic reaction according to the same procedures as in Example 1. The glucose concentration, the fructose concentration and the galactose concentration were measured. The galactose concentration was measured using F-kit Galactose (ex Roche). The liberated galactose concentration, g/l, was calculated by subtracting the blank value (0.1 M phosphate buffer alone) from the measured galactose concentration.

The target in experiment [2] is T2, sucrase (Rattus norvegicus, UniProt P23739).
T2 construct: This liquid contained a mixture of enzymes present in small intestine, such as sucrose, glucoamylase, maltase, and isomaltase; tissue Sigma Corporation; host or cells: rat small intestine (acetone powder), buffer extract, unpurified
T2 sequence (P23739 whole entry): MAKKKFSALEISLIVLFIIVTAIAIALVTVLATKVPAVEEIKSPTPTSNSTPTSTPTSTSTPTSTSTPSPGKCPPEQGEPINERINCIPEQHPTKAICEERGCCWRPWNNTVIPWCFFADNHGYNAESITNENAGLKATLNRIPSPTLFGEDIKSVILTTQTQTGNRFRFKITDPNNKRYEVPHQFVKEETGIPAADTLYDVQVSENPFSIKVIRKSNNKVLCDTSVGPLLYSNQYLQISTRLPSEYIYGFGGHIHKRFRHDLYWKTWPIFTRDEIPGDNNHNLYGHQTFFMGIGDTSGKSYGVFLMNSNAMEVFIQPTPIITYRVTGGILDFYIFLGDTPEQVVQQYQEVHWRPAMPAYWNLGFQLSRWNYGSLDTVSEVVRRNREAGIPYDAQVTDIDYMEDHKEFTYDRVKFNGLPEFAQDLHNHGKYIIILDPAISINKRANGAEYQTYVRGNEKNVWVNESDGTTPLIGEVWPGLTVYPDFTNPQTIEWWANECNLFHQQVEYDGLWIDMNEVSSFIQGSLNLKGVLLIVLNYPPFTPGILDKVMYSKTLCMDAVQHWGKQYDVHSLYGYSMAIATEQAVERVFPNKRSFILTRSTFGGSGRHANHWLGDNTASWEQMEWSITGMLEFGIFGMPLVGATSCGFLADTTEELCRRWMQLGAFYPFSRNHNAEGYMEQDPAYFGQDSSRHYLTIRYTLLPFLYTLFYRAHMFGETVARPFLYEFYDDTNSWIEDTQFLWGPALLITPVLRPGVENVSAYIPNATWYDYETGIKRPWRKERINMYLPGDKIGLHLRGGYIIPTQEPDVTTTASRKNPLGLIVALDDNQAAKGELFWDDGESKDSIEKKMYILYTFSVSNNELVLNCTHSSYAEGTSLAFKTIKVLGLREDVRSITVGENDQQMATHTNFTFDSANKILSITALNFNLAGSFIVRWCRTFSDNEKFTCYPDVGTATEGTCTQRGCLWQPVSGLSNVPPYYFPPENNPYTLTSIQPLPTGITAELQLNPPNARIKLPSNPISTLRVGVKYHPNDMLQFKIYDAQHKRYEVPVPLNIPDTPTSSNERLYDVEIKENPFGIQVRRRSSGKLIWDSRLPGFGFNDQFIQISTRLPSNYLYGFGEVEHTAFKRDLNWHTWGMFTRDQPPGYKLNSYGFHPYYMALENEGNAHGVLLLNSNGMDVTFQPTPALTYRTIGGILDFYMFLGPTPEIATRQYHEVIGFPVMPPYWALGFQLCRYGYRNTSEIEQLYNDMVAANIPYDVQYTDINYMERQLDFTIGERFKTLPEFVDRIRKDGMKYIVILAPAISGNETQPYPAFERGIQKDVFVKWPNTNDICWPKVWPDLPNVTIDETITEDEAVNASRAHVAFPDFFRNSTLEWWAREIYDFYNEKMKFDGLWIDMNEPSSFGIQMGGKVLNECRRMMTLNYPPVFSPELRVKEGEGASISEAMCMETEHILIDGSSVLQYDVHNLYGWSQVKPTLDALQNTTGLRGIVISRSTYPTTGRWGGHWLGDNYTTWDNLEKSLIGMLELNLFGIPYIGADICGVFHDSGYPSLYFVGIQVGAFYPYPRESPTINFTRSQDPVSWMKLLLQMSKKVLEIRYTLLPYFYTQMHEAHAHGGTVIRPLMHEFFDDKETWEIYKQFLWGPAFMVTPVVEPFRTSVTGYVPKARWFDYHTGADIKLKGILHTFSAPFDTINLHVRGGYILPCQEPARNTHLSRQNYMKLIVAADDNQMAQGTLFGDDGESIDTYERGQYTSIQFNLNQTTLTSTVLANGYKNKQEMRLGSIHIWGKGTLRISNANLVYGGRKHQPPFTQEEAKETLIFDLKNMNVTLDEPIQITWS
Put plainly: Sucrase activity inhibition with rat small-intestinal enzyme liquid, substrate sucrose. Format: biochemical. The procedure:
(§8) Palatinose (trade name: Palatinose IC, ex Shin Mitsui Sugar Co., Ltd.) (test sample) was used as a sample for investigating each enzyme activity inhibitory effect. Maltose and sucrose were used as substrates for maltase and sucrose, respectively. The test sample and the substrates were dissolved in 0.1 M phosphate buffer (pH 6.8) at the concentration shown in Table 1 below to prepare test solutions (Solutions 4 and 5). Also, the test sample or the substrates were dissolved in 0.1 M phosphate buffer (pH 6.8), respectively to at the concentration shown in Table 1 below to prepare control solutions (Solution 1 for the test sample and Solutions 2 and 3 for the substrates).
as §1, §2, §3, §4, §5, §6
The procedures in Example 1 were repeated with the exception that the test solutions contained 5% of sucrose and 0.5%, 1.0%, 3.0% or 5.0% of palatinose to examine intensity of the sucrose activity inhibition. A control solution contained 5% of sucrose in 0.1 M phosphate buffer (pH 6.8).
The procedures in Example 1 were repeated with the exception that palatinit and palatinose were used as test samples and sucrose was used as a substrate. The test samples and the substrate were dissolved in 0.1 M phosphate buffer (pH 6.8) to attain the concentration shown in Table 3 to thereby prepare two test solutions. Besides, each one of the test samples or the substrate was dissolved in 0.1 M phosphate buffer (pH 6.8) to attain the concentration shown in Table 3 to thereby prepare control solutions. Each 5 ml of the aforementioned test solutions or the control solutions was subjected to the enzymatic reaction according to the same procedures as in Example 1. The glucose concentration and the fructose concentration were measured. […]

Experiment [3] concerns small-intestinal enzyme liquid. Put plainly: Decomposition of a saccharide alone (control solution) by small-intestinal enzyme liquid. Format: biochemical, rat. Particulars: 5% saccharide alone; for Liberated galactose concentration: Test Example 3. On the procedure:
as §8, §1, §2, §3
The fructose concentration was measured using the F-kit Fructose (ex Roche). The liberated fructose concentration, g/l, was obtained by subtracting the blank value (0.1 M phosphate buffer alone) from the resultant fructose concentration.
as §7

Experiment [4] deals with glucoamylase. Put plainly: Glucoamylase activity inhibition with rat small-intestinal enzyme liquid, substrate soluble starch. The class given is biochemical. The settings on record: 5% soluble starch + 5% test sample. The procedure: as §1, §2, §3, §4, §5, §6
The procedures in Example 1 were repeated with the exception that palatinose and palatinit were used as a test sample and soluble starch was used as a substrate. The test samples and the substrate were dissolved in 0.1 M phosphate buffer (pH 6.8) to attain the concentration shown in Table 6 to thereby prepare two test solutions. Besides, each of the test samples or the substrate was dissolved in 0.1 M phosphate buffer (pH 6.8) to attain the concentration shown in Table 6 to thereby prepare control solutions. Each 5 ml of the aforementioned test solutions and the control solutions was subjected to the enzymatic reaction according to the same procedures as in Example 1 and the liberated glucose concentration and the decomposition inhibition ratio were measured.
The procedures in Example 1 were repeated with the exception that trehalulose was used as a test sample and soluble starch was used as a substrate. The test sample and the substrate were dissolved in 0.1 M phosphate buffer (pH 6.8) to attain the concentration shown in Table 9 to thereby prepare a test solution. Besides, the test sample or the substrate was dissolved in 0.1 M phosphate buffer (pH 6.8) to attain the concentration shown in Table 9 to thereby prepare control solutions. Each 5 ml of the aforementioned test solution and the control solutions was subjected to the enzymatic reaction according to the same procedures as in Example 1 and the liberated glucose concentration and the decomposition inhibition ratio were measured.
The procedures in Example 1 were repeated with the exception that trehalose was used as a test sample and soluble starch was used as a substrate. […]

[5] abbreviates: 5% sucrose + 5% test sample, Example 3 / Test Example 2.
Setting [6] is: 5% sucrose + 5% test sample, Example 5 / Test Example 4.

For `OC[C@H]1O[C@H](OC[C@H]2OC(O)[C@H](O)[C@@H](O)[C@@H]2O)[C@H](O)[C@@H](O)[C@@H]1O` (stereo partly drawn) [isomaltose, reference compound], in experiment [1], the “Decomposition inhibition ratio, %, against lactase” value was −1%; the “Lactase activity inhibitory effect (in words)” value is given as “no lactose inhibitory effect was appreciable”; the Liberated fructose concentration worked out at 0.00 g/L; the Liberated galactose concentration is 0.06 g/L. The Liberated glucose concentration in experiment [1] is 2.41 g/L. Moreover, in experiment [2] (5% sucrose + 5% isomaltose), the “Total concentration of liberated monosaccharides (glucose + fructose)” value turned out to be 2.88 g/L. In addition, in experiment [2] (5% sucrose + 5% test sample), the “Sucrase activity inhibitory effect (in words)” value was “has a sucrose activity inhibitory effect”. In addition, in experiment [2] (setting [5]), the “Decomposition inhibition ratio, %, against sucrase” value is reported as 31%; the Liberated fructose concentration is 0.70 g/L; the Liberated glucose concentration amounted to 2.18 g/L. In experiment [3] (Example 3 / Test Examples 2, 3), the Liberated fructose concentration amounted to 0.02 g/L and the Liberated glucose concentration is 2.14 g/L. The Liberated galactose concentration in experiment [3] is 0.00 g/L.
Regarding `OC[C@H]1O[C@@H](O[C@H]2[C@H](O)[C@@H](O)C(O)O[C@@H]2CO)[C@H](O)[C@@H](O)[C@H]1O` (stereo partly drawn) [lactose], in experiment [3] (Example 3 / Test Examples 2, 3), the Liberated fructose concentration came out at 0.00 g/L and the Liberated glucose concentration came to 0.23 g/L. Further, the Liberated galactose concentration in experiment [3] stood at 0.16 g/L.
As to `OC[C@H]1O[C@H](O[C@H]2[C@H](O)[C@@H](O)[C@H](O)O[C@@H]2CO)[C@H](O)[C@@H](O)[C@@H]1O` [maltose], the Liberated glucose concentration in experiment [3] (37° C., 60 min, pH 6.8, Example 1 / Test Example 1) is 4.956 ± 0.423 g/L.
For `OC[C@H]1O[C@H](O[C@H]2O[C@H](CO)[C@@H](O)[C@H](O)[C@H]2O)[C@H](O)[C@@H](O)[C@@H]1O` [trehalose, reference compound], in experiment [4], the “Glucoamylase activity inhibitory effect (in words)” value is recorded as “has a glucoamylase activity inhibitory effect, but the effect is very weak”. For the same compound, in experiment [4] (Example 6 / Test Example 5), the “Decomposition inhibition ratio, %, against glucoamylase” value is recorded as 14%. In addition, the Liberated glucose concentration in experiment [4] (Example 6 / Test Example 5) was determined as 2.349 g/L; in experiment [2] (setting [6]) it was 1.683 g/L; in experiment [3] (Example 5 / Test Example 4, sucrase activity inhibition test) it was 1.656 g/L; in experiment [3] (Example 6 / Test Example 5, glucoamylase activity inhibition test) it was 0.333 g/L. For the same compound, the “Sucrase activity inhibitory effect (in words)” value in experiment [2] (5% sucrose + 5% test sample) is “substantially no sucrose activity inhibitory effect”. Further, in experiment [2] (setting [6]), the “Decomposition inhibition ratio, %, against sucrase” value turned out to be 49%.
With soluble starch, the Liberated glucose concentration in experiment [3] (Example 4) was determined as 4.657 g/L; in experiment [3] (Example 6 / Test Example 5), 2.400 g/L.
